In data set [1] the target is T1, VIPR1 (Vasointestinal Peptide Receptor 1) (Homo sapiens, UniProt P32241).
T1 construct: host or cells: CHO-K1 (cAMP Hunter eXpress VIPR1 CHO-K1 GPCR assay kit)
T1 sequence (P32241 31-457): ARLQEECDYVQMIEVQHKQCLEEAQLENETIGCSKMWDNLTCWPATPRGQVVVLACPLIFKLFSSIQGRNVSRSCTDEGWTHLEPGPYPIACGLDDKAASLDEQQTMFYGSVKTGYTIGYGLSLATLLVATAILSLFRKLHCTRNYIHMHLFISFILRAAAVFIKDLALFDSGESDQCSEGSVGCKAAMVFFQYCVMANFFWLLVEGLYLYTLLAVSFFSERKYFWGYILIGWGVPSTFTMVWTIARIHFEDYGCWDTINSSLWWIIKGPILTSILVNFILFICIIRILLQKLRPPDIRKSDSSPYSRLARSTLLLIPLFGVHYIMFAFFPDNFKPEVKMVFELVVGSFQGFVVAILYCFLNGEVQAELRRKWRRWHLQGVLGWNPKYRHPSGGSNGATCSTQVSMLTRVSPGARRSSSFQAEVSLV
Kind of data set: DiscoverX cAMP Hunter eXpress VIPR1 CHO-K1 GPCR assay. The data set is classed as cell-based. Particulars: VIPR1 CHO-K1 cells. From the text:
DiscoverX cAmP Hunter eXpress VIPRI CHO-K1 GPCR and GHRHR CHO-K1 GPCR assays kits were used. The DiscoverX kits contain naturally coupled GPCR cell lines designed to detect GPCR signaling through second messenger activation. This signaling involves a membrane bound enzyme called adenylate cyclase. […] receptors modulate cAMP by either inhibiting or stimulating adenylate cyclase, respectively. The DiscoverX cell lines included in the kits utilize the natural coupling status of the GPCR to monitor activation of […] receptors. Following ligand stimulation, the functional status of the GPCR is monitored by measuring cellular cAMP levels using a homogeneous, gain of signal competitive immunoassay based on Enzyme Fragment Complementation (EFC). The amount of EFC is measured by analysis with a fluorescent plate reader.
On the day before the assay, the DiscoverX cell lines were defrosted, plated into 384 well plates and allowed to incubate overnight. All the samples were diluted to 2 mM using 100% DMSO. The vials were sonicated and centrifuged to assure all peptides went into solution. The final volumes were small, 80-200 μl. An 80% purity and peptide content was assumed for all samples and dilutions were based on the molecular weights. On the day of the assay, the samples were diluted to 200 μM in water and then to 4 μM in DiscoverX assay buffer (supplemented with 0.1% BSA). Serial dilutions were performed on assay day, 16 dilutions from 1000 nM were run side by side in duplicate for each peptide for study. The assays were performed in the 384 well plates with the assistance of a CyBio Bi-Well 384 channel liquid handling robot. The samples were analyzed on a Tecan Ultra Evolution plate reader according to DiscoverX guidelines. The EC50 values were determined using GraphPad Prism software. The EC50 value is defined as the concentration of agonist that provokes a response halfway between the baseline and maximum response.
DiscoverX™ cAmP Hunter eXpress VIPR1 CHO-K1 GPCR and GHRHR CHO-K1 GPCR assay kits were used. On the day before the assay, the DiscoverX™ cell lines were defrosted, plated into 384 well plates and allowed to incubate overnight. All the samples were diluted to 2 mM using 100% DMSO. The vials were sonicated and centrifuged to assure all peptides went into solution. The final volumes were small, 80-200 μl. An 80% purity and peptide content was assumed for all samples and dilutions were based on the molecular weights. On the day of the assay, the samples were diluted to 200 μM in water and then to 4 μM in DiscoverX™ assay buffer (supplemented with 0.1% BSA). Serial dilutions were performed on assay day, 16 dilutions from 1000 nM were run side by side in duplicate for each peptide for study. The assays were performed in the 384 well plates with the assistance of a CyBio™ Bi-Well 384 channel liquid handling robot. The samples were analyzed on a Tecan™ Ultra Evolution plate reader according to DiscoverX™ guidelines. The EC50 values were determined using GraphPad™ Prism software. The EC50 value is defined as the concentration of agonist that provokes a response halfway between the baseline and maximum response. (+=>25 nM; ++=>10-25 nM; +++=>1-10 nM; ++++=>0.1-1 nM; +++++=<0.1 nM). […]

A further data set is described as follows: Plasma compatibility. It counts as physicochemical. The method, then:
The plasma compatibility of exemplary peptidomimetic macrocycles was also determined. Peptidomimetic macrocycles with a plasma compatability value (PC) that is greater than 0.1 were determined as being plasma compatible.

Data set [2] in a line: Plasma PK/PD study in rats. The data set is classed as in vivo, rat. Particulars: male Sprague-Dawley rats. The method, then: Five peptidomimetic macrocycles of the invention, as well as sermorelin, were studied to determine pharmacokinetic and pharmacodynamic parameters in rats. Male Sprague-Dawley rats (300 g, non-fasted, cannulated) were used. The study had three arms: IV administration, SC administration, and SC administration (vehicle control). For experiments using sermorelin, a dose level of 3 mg/kg IV/SC bolus was used (dose volume of […] dose and dose concentration of 1 mg/mL). The vehicle used was: 10 wt % N, N-Dimethylacetamide, 10 wt % DMSO, 2 wt % Solutol HS 15 in water for injection containing 45 mg/mL (4.5 wt %) Mannitol and 25 mM (0.38 wt %) Histidine (pH 7.5; 320 mOsm/kg). The peptide was first dissolved at high concentration in DMA and DMSO before a second dilution in Solutol vehicle.
For experiments using peptidomimetic macrocycles, 0.1 mL of DMA and 0.1 mL of DMSO were used to combine with each mg of macrocycle (˜4.3-4.5 mg of macrocycle used in each experiment). Sonication was used to ensure complete solubilization. 0.8 mL of Solutol vehicle was used for each mg of macrocycle in DMA/DMSO. The solutions were mixed gently with pipet or light vortexing. Fresh vials were used for each day of dosing, and macrocycles were stored solid at −20° C. prior to formulation.
For each study arm, 2 rats were bled (350 μL) at specific time points (5 min, 15 min, 30 min, 1 h, 2 h, 4 h, 8 h, 24 h, and 48 h) and a 150 μL bleed was performed just before dosing. Plasma was prepared into K2EDTA tubes by centrifuging for 20 minutes at 4° C. at 2000G maximum 30 minutes after collection. From each 350 μL bleed, 120 μL were transferred to one tube for PK studies and 50 μL to another tube for PD studies and frozen immediately. From the 150 μL bleed, 70 μL were transferred to one tube for PD studies and frozen immediately.

Each structure is given as a SMILES string. Where a SMILES comes first, the peptide text is derived from it. Bridges are numbered along the chain shown (N, C = ends). [ ]: non-standard residue; d: D form. The star is where a group is joined. Decanoyl(3,6,9-trioxa) = COCCOCCOCC(=O)*; S5 = C=CCCC[C@](C)(N)C(=O)O; Nle = CCCC[C@H](N)C(=O)O

Regarding `CC[C@H](C)[C@H](NC(=O)[C@H](C)NC(=O)[C@H](CC(=O)O)NC(=O)[C@H](C)NC(=O)[C@@H](N)Cc1ccc(O)cc1)C(=O)N[C@@H](Cc1ccccc1)C(=O)N[C@H](C(=O)N[C@@H](CC(N)=O)C(=O)N[C@@H](CO)C(=O)N[C@@H](Cc1ccc(O)cc1)C(=O)N[C@@H](CCCNC(=N)N)C(=O)N[C@@H](CCCCN)C(=O)N[C@H](C(=O)N[C@@H](CC(C)C)C(=O)NCC(=O)N[C@@H](CCC(N)=O)C(=O)N[C@@H](CC(C)C)C(=O)N[C@@H](CO)C(=O)N[C@@H](C)C(=O)N[C@@H](CCCNC(=N)N)C(=O)N[C@@H](CCCCN)C(=O)N[C@@H](CC(C)C)C(=O)N[C@@H](CC(C)C)C(=O)N[C@@H](CCC(N)=O)C(=O)N[C@@H](CC(=O)O)C(=O)N[C@H](C(=O)N[C@@H](CCSC)C(=O)N[C@@H](CO)C(=O)N[C@@H](CCCNC(=N)N)C(N)=O)[C@@H](C)CC)C(C)C)[C@@H](C)O` [SP-2, reference compound], the EC50 in data set [1] lay in the range of 0.1 to 1 nM. In addition, the “Plasma Compatability” value in “Plasma compatibility” is 4.6 mg/mL.

On to `CC/C=C/CC(=O)N[C@@H](Cc1ccc(O)cc1)C(=O)N[C@@H](C)C(=O)N[C@@H](CC(=O)O)C(=O)N[C@@H](C)C(=O)N[C@H](C(=O)N[C@@H](Cc1ccccc1)C(=O)N[C@H](C(=O)N[C@@H](CC(N)=O)C(=O)N[C@@H](CO)C(=O)N[C@@H](Cc1ccc(O)cc1)C(=O)N[C@@H](CCCNC(=N)N)C(=O)N[C@@H](CCCCN)C(=O)N[C@H](C(=O)N[C@@H](CC(C)C)C(=O)NCC(=O)N[C@@H](CCC(N)=O)C(=O)N[C@@H](CC(C)C)C(=O)N[C@@H](CO)C(=O)N[C@@H](C)C(=O)N[C@@H](CCCNC(=N)N)C(=O)N[C@@H](CCCCN)C(=O)N[C@@H](CC(C)C)C(=O)N[C@@H](CC(C)C)C(=O)N[C@@H](CCC(N)=O)C(=O)N[C@@H](CC(=O)O)C(=O)N[C@H](C(=O)N[C@@H](CCSC)C(=O)N[C@@H](CO)C(=O)N[C@@H](CCCNC(=N)N)C(=O)N[C@@H](CCC(N)=O)C(=O)N[C@@H](CCC(N)=O)C(=O)NCC(=O)N[C@@H](CCC(=O)O)C(=O)N[C@@H](CO)C(=O)N[C@@H](CC(N)=O)C(=O)N[C@@H](CCC(N)=O)C(=O)N[C@@H](CCC(=O)O)C(=O)N[C@@H](CCCNC(=N)N)C(=O)NCC(=O)N[C@@H](C)C(=O)N[C@@H](CCCNC(=N)N)C(=O)N[C@@H](C)C(=O)N[C@@H](CCCNC(=N)N)C(=O)N[C@@H](CC(C)C)C(N)=O)[C@@H](C)CC)C(C)C)[C@@H](C)O)[C@@H](C)CC` [SP-1, reference compound], for which the “AUC Ext (%)” value in data set [2] is 13.8%. This molecule showed a mean residence time MRT in data set [2] (rat, 3 mg/kg) of 1.6 h. Moreover, in data set [2] (rat, 3 mg/kg, read-out: Clp (converted)), the clearance was 2.85 mL/min/kg. Besides, the Vd in data set [2] (rat, 3 mg/kg, read-out: Vdss) stood at 0.267 L/kg. Further, in data set [2] (rat, 3 mg/kg, read-out: t ½ (converted)), the half-life is 55.1 h. The molecule further came in with an AUC(0-inf) in data set [2] (rat, 3 mg/kg, route not given) of 17500 ng·h/mL. For the same molecule, the “Plasma Compatability” value in the data set “Plasma compatibility” was 3.5 mg/mL.

Regarding `CCCC[C@H](NC(=O)[C@@H](NC(=O)[C@H](CC(=O)O)NC(=O)[C@H](CCC(N)=O)NC(=O)[C@H](CC(C)C)NC(=O)[C@H](C)NC(=O)[C@H](CCCCN)NC(=O)[C@H](CCCNC(=N)N)NC(=O)[C@H](C)NC(=O)[C@H](CO)NC(=O)[C@]1(C)CCCC=CCCC[C@](C)(NC(=O)[C@H](CCCCN)NC(=O)[C@H](CCCNC(=N)N)NC(=O)[C@H](Cc2ccc(O)cc2)NC(=O)[C@H](CO)NC(=O)[C@H](CCC(N)=O)NC(=O)[C@@H](NC(=O)[C@H](Cc2ccccc2)NC(=O)[C@@H](NC(=O)[C@H](C)NC(=O)[C@H](CC(=O)O)NC(=O)[C@@H](C)NC(=O)[C@@H](N)Cc2ccc(O)cc2)[C@@H](C)CC)[C@@H](C)O)C(=O)N[C@@H](CC(C)C)C(=O)N[C@@H](C)C(=O)N[C@@H](CCC(N)=O)C(=O)N1)[C@@H](C)CC)C(=O)N[C@@H](CO)C(=O)N[C@@H](CCCNC(=N)N)C(N)=O` (single isomer, unassigned) [SP-107], the “Plasma Compatability” value in “Plasma compatibility” stood at 1.6 mg/mL.

As for `CCCC[C@H](NC(=O)[C@@H](NC(=O)[C@H](CC(=O)O)NC(=O)[C@H](CCC(N)=O)NC(=O)[C@H](CC(C)C)NC(=O)[C@H](C)NC(=O)[C@H](CCCCN)NC(=O)[C@H](CCCNC(=N)N)NC(=O)[C@H](C)NC(=O)[C@H](CO)NC(=O)[C@]1(C)CCCC=CCCC[C@](C)(NC(=O)[C@H](CCCCN)NC(=O)[C@H](CCCNC(=N)N)NC(=O)[C@H](Cc2ccc(O)cc2)NC(=O)[C@H](CO)NC(=O)[C@H](C)NC(=O)[C@@H](NC(=O)[C@H](Cc2ccccc2)NC(=O)[C@@H](NC(=O)[C@H](C)NC(=O)[C@H](CC(=O)O)NC(=O)[C@@H](C)NC(=O)[C@H](Cc2ccc(O)cc2)NC(=O)COCCOCCOC)[C@@H](C)CC)[C@@H](C)O)C(=O)N[C@@H](CC(C)C)C(=O)N[C@@H](C)C(=O)N[C@@H](CCC(N)=O)C(=O)N1)[C@@H](C)CC)C(=O)N[C@@H](CO)C(=O)N[C@@H](CCCNC(=N)N)C(N)=O` [SP-135] ({Decanoyl(3,6,9-trioxa)}-Y[dA]DAIFTASYRK[S5]LAQ[S5]SARKALQDI[Nle]SR-NH2; staple 13-17; N-terminus and C-terminus assumed), the “Plasma Compatability” value in “Plasma compatibility” is given as 1.6 mg/mL.

The values above are taken from patent US20180371044A1, “PEPTIDOMIMETIC MACROCYCLES” (Aileron Therapeutics, Inc., priority 2015, published 2018).
